Patent US9656963B2 (BRISTOL-MYERS SQUIBB COMPANY, priority 2012, dated 2017)

Target: T1, hGPR40 (Homo sapiens, UniProt O14842)
T1 construct: 3x FLAG; expressed in transfected cells
Assay: FDSS-Based Intracellular Calcium Assay
Type: cell-based
Settings: cells expressing GPR40, intracellular Ca2+ response
Description: FDSS-Based Intracellular Calcium Assay
Cell lines expressing GPR40 are generated using the pDEST 3× flag gene expression system and are cultured in culture medium comprising the following components: F12 (Gibco #11765), 10% lipid deprived fetal bovine serum, 250 μg/ml zeocin and 500 μg/ml G418. To conduct the fluorescent imaging plate reader (FLIPR)-based calcium flux assay to measure intracellular Ca^2+ response, cells expressing GPR40 are plated on 384 well plates (BD Biocoat #356697) at a density of 20,000 cells/20 μL medium per well in phenol red and serum-free DMEM (Gibco #21063-029) and incubated overnight. […] Compounds are dissolved in DMSO and diluted to desired concentrations with assay buffer and added to the cells as 3x solution (20 μL per well). Run fluorescence/luminescence reader FDSS (Hamamatsu) to read intracellular Ca^2+ response.

T1 sequence (O14842 whole entry): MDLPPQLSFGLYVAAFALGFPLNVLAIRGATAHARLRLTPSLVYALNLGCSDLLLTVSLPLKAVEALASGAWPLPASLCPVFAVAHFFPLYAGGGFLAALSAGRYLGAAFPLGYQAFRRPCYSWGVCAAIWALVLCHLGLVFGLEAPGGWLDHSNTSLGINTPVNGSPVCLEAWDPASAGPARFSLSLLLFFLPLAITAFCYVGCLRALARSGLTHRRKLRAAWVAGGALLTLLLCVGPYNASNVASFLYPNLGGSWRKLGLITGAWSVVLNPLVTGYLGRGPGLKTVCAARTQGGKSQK

EC50 | SMILES
50 nM | COc1ccc(F)c(-c2ccc(Cc3ccc(N4N=C(C(F)(F)F)C[C@@H]4CC(=O)O)cc3)c(Cl)c2)c1 (single isomer, unassigned) [Example 20, Isomer 2]
1650 nM | Cc1ccccc1Oc1ccc(N2N=C(S(C)(=O)=O)CC2CC(=O)O)cc1 (racemic) [Example 5, 2-(3-(methylsulfonyl)-1-(4-(o-tolyloxy)phenyl)-4,5-dihydro-1H-pyrazol-5-yl)acetic acid]
57 nM | COc1ccc(F)c(-c2ccc(Cc3ccc(N4N=C(c5cc(C)on5)[C@@H](C)[C@@H]4CC(=O)O)cc3)c(C)c2)c1 (single isomer, unassigned) [Example 69, isomer 1]
6620 nM | COc1ccc(F)c(-c2ccc(Cc3ccc(N4N=C(C(=O)O)[C@@H](C)[C@@H]4CC(=O)O)cc3)c(C)c2)c1 [Example 57, (4S,5S)-5-(carboxymethyl)-1-(4-((2′-fluoro-5′-methoxy-3-methyl-[1,1′-biphenyl]-4-yl)methyl)phenyl)-4-methyl-4,5-dihydro-1H-pyrazole-3-carboxylic acid]
330 nM | COc1cccc(-c2ccc(Cc3ccc(N4N=C(C(F)(F)F)CC4CC(=O)O)cc3)c(C)c2)c1 (single isomer, unassigned) [Example 26, Isomer 1, 2-(1-(4-((3′-methoxy-3-methylbiphenyl-4-yl)methyl)phenyl)-3-(trifluoromethyl)-4,5-dihydro-1H-pyrazol-5-yl)acetic acid]
970 nM | COc1ccc(F)c(-c2ccc(Cc3ccc(N4N=C(C(F)(F)F)C(C)C4CC(=O)O)cc3)c(Cl)c2)c1 (single isomer, unassigned) [Example 60, Isomer 1, 22-(1-(4-((3-chloro-2′-fluoro-5′-methoxy-[1,1′-biphenyl]-4-yl)methyl)phenyl)-4-methyl-3-(trifluoromethyl)-4,5-dihydro-1H-pyrazol-5-yl)acetic acid]
570 nM | Cc1cc(Cc2ccc(N3N=C(C(F)(F)F)CC3CC(=O)O)cc2)ccc1-c1cc(C(F)(F)F)ccc1F (racemic) [Example 24, 2-(1-(4-((2′-fluoro-2-methyl-5′-(trifluoromethyl)biphenyl-4-yl)methyl)phenyl)-3-(trifluoromethyl)-4,5-dihydro-1H-pyrazol-5-yl)acetic acid]
190 nM | COc1ccc(F)c(-c2ccc(Oc3ccc(N4N=C(C#N)CC4CC(=O)O)cc3)c(C)c2)c1 (racemic) [Example 32, 2-(3-cyano-1-(4-(2′-fluoro-5′-methoxy-3-methylbiphenyl-4-yloxy)phenyl)-4,5-dihydro-1H-pyrazol-5-yl)acetic acid]
360 nM | COc1cc(-c2ccc(Cc3ccc(N4N=C(C(F)(F)F)CC4CC(=O)O)cc3)c(C)c2)c(F)cn1 (single isomer, unassigned) [Example 27, Isomer 1, 2-(1-(4-(4-(5-fluoro-2-methoxypyridin-4-yl)-2-methylbenzyl)phenyl)-3-(trifluoromethyl)-4,5-dihydro-1H-pyrazol-5-yl)acetic acid]
37 nM | COc1cccc(-c2ccc(Cc3ccc(N4N=C(C(F)(F)F)[C@@H](C)[C@@H]4CC(=O)O)cc3)c(C)c2)c1 [Example 73]
430 nM | COc1cc(-c2ccc(Cc3ccc(N4N=C(C(F)(F)F)[C@@H](C)[C@@H]4CC(=O)O)cc3)c(C)c2)ccn1 [Example 75, 2-((4S,5S)-1-(4-(4-(2-methoxypyridin-4-yl)-2-methylbenzyl)phenyl)-4-methyl-3-(trifluoromethyl)-4,5-dihydro-1H-pyrazol-5-yl)acetic acid]
210 nM | COc1cc(-c2ccc(Cc3ccc(N4N=C(C(F)(F)F)[C@@H](C)[C@@H]4CC(=O)O)cc3)c(C)c2)c(F)cn1 [Example 74, 2-((4S,5 S)-1-(4-(4-(5-fluoro-2-methoxypyridin-4-yl)-2-methylbenzyl)phenyl)-4-methyl-3-(trifluoromethyl)-4,5-dihydro-1H-pyrazol-5-yl)acetic acid]
7020 nM | C[C@@H]1C(C(F)(F)F)=NN(c2ccc(CCCc3cccc(F)c3)cc2)[C@H]1CC(=O)O [Example 72, 2-((4S,5S)-1-(4-(3-(3-fluorophenyl)propyl)phenyl)-4-methyl-3-(trifluoromethyl)-4,5-dihydro-1H-pyrazol-5-yl)acetic acid]
1050 nM | COc1ccc(F)c(-c2ccc(Cc3ccc(N4N=C(C#N)C(C)C4CC(=O)O)cc3)c(C)c2)c1 (single isomer, unassigned) [Example 52, Isomer 1, 2-(3-cyano-1-(4-((2′-fluoro-5′-methoxy-3-methylbiphenyl-4-yl)methyl)phenyl)-4-methyl-4,5-dihydro-1H-pyrazol-5-yl)acetic acid]
230 nM | COc1ccc(F)c(-c2ccc(Cc3ccc(N4N=C(c5ccn(C)n5)C(C)C4CC(=O)O)cc3)c(C)c2)c1 (single isomer, unassigned) [Example 55, Isomer 2, 2-((1-(4-((2′-fluoro-5′-methoxy-3-methyl-[1,1′-biphenyl]-4-yl)methyl)phenyl)-1′,4-dimethyl-4,5-dihydro-1H,1′H-[3,3′-bipyrazol]-5-yl)acetic acid, trans-diastereomer]
670 nM | COc1ccc(F)c(-c2ccc(Oc3ccc(N4N=C(C(F)(F)F)CC4CC(=O)O)cc3)cc2C)c1 (single isomer, unassigned) [Example 16, Isomer 1, 2-(1-(4-(2′-fluoro-5′-methoxy-2-methylbiphenyl-4-yloxy)phenyl)-3-(trifluoromethyl)-4,5-dihydro-1H-pyrazol-5-yl)acetic acid]
530 nM | COc1cc(-c2ccc(Oc3ccc(N4N=C(C(F)(F)F)CC4CC(=O)O)cc3)c(C)c2)c(F)cn1 (single isomer, unassigned) [Example 15, Isomer 2, 2-(1-(4-(4-(5-fluoro-2-methoxypyridin-4-yl)-2-methylphenoxy)phenyl)-3-(trifluoromethyl)-4,5-dihydro-1H-pyrazol-5-yl)acetic acid]
180 nM | COc1ccc(F)c(-c2cc(C)c(Oc3ccc(N4N=C(C#N)CC4CC(=O)O)cc3)cc2C)c1 (racemic) [Example 35, 2-(3-cyano-1-(4-(2′-fluoro-5′-methoxy-2,5-dimethylbiphenyl-4-yloxy)phenyl)-4,5-dihydro-1H-pyrazol-5-yl)acetic acid]
120 nM | COc1ccc(Cl)c(-c2ccc(Cc3ccc(N4N=C(C#N)CC4CC(=O)O)cc3)c(C)c2)c1 (racemic) [Example 40, 2-(1-(4-((2′-chloro-5′-methoxy-3-methylbiphenyl-4-yl)methyl)phenyl)-3-cyano-4,5-dihydro-1H-pyrazol-5-yl)acetic acid]
230 nM | Cc1cc(Br)c(F)cc1Oc1ccc(N2N=C(C(F)(F)F)CC2CC(=O)O)cc1 (racemic) [Example 10, 2-(1-(4-(4-bromo-5-fluoro-2-methylphenoxy)phenyl)-3-(trifluoromethyl)-4,5-dihydro-1H-pyrazol-5-yl)acetic acid]
180 nM | N#CC1=NN(c2ccc(Oc3ccccc3Br)cc2)C(CC(=O)O)C1 (racemic) [Example 30, 2-(1-(4-(2-bromophenoxy)phenyl)-3-cyano-4,5-dihydro-1H-pyrazol-5-yl)acetic acid]
500 nM | COc1ccc(F)c(-c2cc(C)c(Cc3ccc(N4N=C(C(F)(F)F)CC4CC(=O)O)cc3)c(F)c2)c1 (single isomer, unassigned) [Example 21, Isomer 1, 2-(1-(4-((2′,3-difluoro-5′-methoxy-5-methylbiphenyl-4-yl)methyl)phenyl)-3-(trifluoromethyl)-4,5-dihydro-1H-pyrazol-5-yl)acetic acid]
150 nM | COc1ccc(F)c(-c2ccc(Cc3ccc(N4N=C(C(F)(F)F)CC4CC(=O)O)cc3)c(C)c2)c1 (single isomer, unassigned) [Example 17, Isomer 1, 2-(1-(4-((2′-fluoro-5′-methoxy-3-methylbiphenyl-4-yl)methyl)phenyl)-3-(trifluoromethyl)-4,5-dihydro-1H-pyrazol-5-yl)acetic acid]
4290 nM | Cc1nc(-c2ccccc2)ncc1Cc1ccc(N2N=C(C(F)(F)F)[C@@H](C)[C@@H]2CC(=O)O)cc1 [Example 58, 2-((4S,5S)-4-methyl-1-(4-((4-methyl-2-phenylpyrimidin-5-yl)methyl)phenyl)-3-(trifluoromethyl)-4,5-dihydro-1H-pyrazol-5-yl)acetic acid]
620 nM | COc1ccc(F)c(-c2ccc(Oc3ccc(N4N=C(C(F)(F)F)CC4CC(=O)O)cc3)c(Cl)c2)c1 (single isomer, unassigned) [Example 42, Isomer 1, 2-(1-(4-(3-chloro-2′-fluoro-5′-methoxybiphenyl-4-yloxy)phenyl)-3-(trifluoromethyl)-4,5-dihydro-1H-pyrazol-5-yl)acetic acid]
220 nM | N#CC1=NN(c2ccc(Oc3cccc(Cl)c3)cc2)C(CC(=O)O)C1 (racemic) [Example 4, 2-(1-(4-(3-chlorophenoxy)phenyl)-3-cyano-4,5-dihydro-1H-pyrazol-5-yl)acetic acid]
460 nM | COc1ccc(F)c(-c2ccc(Cc3ccc(N4N=C(c5ncccn5)C(C)C4CC(=O)O)cc3)c(C)c2)c1 (single isomer, unassigned) [Example 61, isomer 2]
470 nM | COc1ccc(F)c(-c2ccc(Cc3ccc(N4N=C(C(F)(F)F)CC4CC(=O)O)cc3)c(Cl)c2)c1 (single isomer, unassigned) [Example 20, Isomer 1, 2-(1-(4-((3-chloro-2′-fluoro-5′-methoxybiphenyl-4-yl)methyl)phenyl)-3-(trifluoromethyl)-4,5-dihydro-1H-pyrazol-5-yl)acetic acid]
37 nM | Cc1ccccc1Oc1ccc(N2N=C(C#N)CC2CC(=O)O)cc1 (single isomer, unassigned) [Example 3, Isomer 1, 2-(3-cyano-1-(4-(o-tolyloxy)phenyl)-4,5-dihydro-1H-pyrazol-5-yl)acetic acid]
